# Data from ChEMBL document CHEMBL4033723, “Succinamide derivatives of melampomagnolide B and their anti-cancer activities” (2017).
# What was measured:
# Type in all cases: functional
# [1] = Induction of apoptosis in human M9-ENL1 cells assessed as cell death after 24 hrs by Annexin V/PI or 7-AAD staining based flow cytometry; conditions: M9-ENL1, 24 h, read-out: LC50 (the source's name)
# MCF7 = test: Growth inhibition of human MCF7 cells after 48 hrs by sulforhodamine B assay; conditions: MCF7, 48 h
# NCI-H522 = test: Growth inhibition of human NCI-H522 cells after 48 hrs by sulforhodamine B assay; conditions: NCI-H522, 48 h
# SK-OV-3 = test: Growth inhibition of human SKOV3 cells after 48 hrs by sulforhodamine B assay; conditions: SK-OV-3, 48 h
# [2] = Growth inhibition of human M9-ENL1 cells after 24 hrs by trypan blue assay; conditions: M9-ENL1, 24 h
# CCRF-CEM = test: Growth inhibition of human CCRF-CEM cells after 48 hrs by sulforhodamine B assay
# COLO 205 = test: Growth inhibition of human COLO205 cells after 48 hrs by sulforhodamine B assay; conditions: COLO 205, 48 h
# DU-145 = test: Growth inhibition of human DU145 cells after 48 hrs by sulforhodamine B assay; conditions: DU-145, 48 h
# OVCAR-5 = test: Growth inhibition of human OVCAR5 cells after 48 hrs by sulforhodamine B assay; conditions: OVCAR-5, 48 h
# SNB-75 = test: Growth inhibition of human SNB75 cells after 48 hrs by sulforhodamine B assay; conditions: SNB-75, 48 h
# NCI-H322M = test: Growth inhibition of human NCI-H322M cells after 48 hrs by sulforhodamine B assay
# K562 = test: Growth inhibition of human K562 cells after 48 hrs by sulforhodamine B assay; conditions: K562, 48 h
# M14 = test: Growth inhibition of human M14 cells after 48 hrs by sulforhodamine B assay; conditions: M14, 48 h
# RPMI-8226 = test: Growth inhibition of human RPMI8226 cells after 48 hrs by sulforhodamine B assay; conditions: RPMI-8226, 48 h
# 786-0 = test: Growth inhibition of human 786-0 cells after 48 hrs by sulforhodamine B assay; conditions: 786-0, 48 h
# A549 = test: Growth inhibition of human A549/ATCC cells after 48 hrs by sulforhodamine B assay; conditions: A549, 48 h
# MDA-MB-468 = test: Growth inhibition of human MDA-MB-468 cells after 48 hrs by sulforhodamine B assay; conditions: MDA-MB-468, 48 h
# HOP-92 = test: Growth inhibition of human HOP92 cells after 48 hrs by sulforhodamine B assay; conditions: HOP-92, 48 h
# SK-MEL-2 = test: Growth inhibition of human SK-MEL-2 cells after 48 hrs by sulforhodamine B assay; conditions: SK-MEL-2, 48 h
# CAKI-1 = test: Growth inhibition of human Caki1 cells after 48 hrs by sulforhodamine B assay; conditions: CAKI-1, 48 h
# NCI/ADR-RES = test: Growth inhibition of human NCI-ADR-RES cells after 48 hrs by sulforhodamine B assay
# OVCAR-8 = test: Growth inhibition of human OVCAR8 cells after 48 hrs by sulforhodamine B assay; conditions: OVCAR-8, 48 h
# NCI-H23 = test: Growth inhibition of human NCI-H23 cells after 48 hrs by sulforhodamine B assay; conditions: NCI-H23, 48 h
# SR = test: Growth inhibition of human SR cells after 48 hrs by sulforhodamine B assay
# MDA-MB-231 = test: Growth inhibition of human MDA-MB-231 cells after 48 hrs by sulforhodamine B assay; conditions: MDA-MB-231, 48 h
# SF-295 = test: Growth inhibition of human SF295 cells after 48 hrs by sulforhodamine B assay; conditions: SF-295, 48 h
# SNB-19 = test: Growth inhibition of human SNB19 cells after 48 hrs by sulforhodamine B assay; conditions: SNB-19, 48 h
# A498 = test: Growth inhibition of human A498 cells after 48 hrs by sulforhodamine B assay; conditions: A498, 48 h
# BT-549 = test: Growth inhibition of human BT549 cells after 48 hrs by sulforhodamine B assay; conditions: BT-549, 48 h
# KM12 = test: Growth inhibition of human KM12 cells after 48 hrs by sulforhodamine B assay; conditions: KM12, 48 h
# HCC 2998 = test: Growth inhibition of human HCC2998 cells after 48 hrs by sulforhodamine B assay; conditions: HCC 2998, 48 h
# SK-MEL-28 = test: Growth inhibition of human SK-MEL-28 cells after 48 hrs by sulforhodamine B assay; conditions: SK-MEL-28, 48 h
# SK-MEL-5 = test: Growth inhibition of human SK-MEL-5 cells after 48 hrs by sulforhodamine B assay; conditions: SK-MEL-5, 48 h
# ACHN = test: Growth inhibition of human ACHN cells after 48 hrs by sulforhodamine B assay
# OVCAR-3 = test: Growth inhibition of human OVCAR3 cells after 48 hrs by sulforhodamine B assay; conditions: OVCAR-3, 48 h
# PC-3 = test: Growth inhibition of human PC3 cells after 48 hrs by sulforhodamine B assay; conditions: PC-3, 48 h
# SN12C = test: Growth inhibition of human SN12C cells after 48 hrs by sulforhodamine B assay
# SW-620 = test: Growth inhibition of human SW620 cells after 48 hrs by sulforhodamine B assay; conditions: SW-620, 48 h
# Hs-578T = test: Growth inhibition of human Hs 578T cells after 48 hrs by sulforhodamine B assay
# HL-60(TB) = test: Growth inhibition of human HL-60(TB) cells after 48 hrs by sulforhodamine B assay; conditions: HL-60, 48 h
# Malme-3M = test: Growth inhibition of human MALME-3M cells after 48 hrs by sulforhodamine B assay
# UACC-257 = test: Growth inhibition of human UACC257 cells after 48 hrs by sulforhodamine B assay; conditions: UACC-257, 48 h
# MDA-MB-435 = test: Growth inhibition of human MDA-MB-435 cells after 48 hrs by sulforhodamine B assay; conditions: MDA-MB-435, 48 h
# UO-31 = test: Growth inhibition of human UO31 cells after 48 hrs by sulforhodamine B assay; conditions: UO-31, 48 h
# OVCAR-4 = test: Growth inhibition of human OVCAR4 cells after 48 hrs by sulforhodamine B assay; conditions: OVCAR-4, 48 h
# MOLT-4 = test: Growth inhibition of human MOLT4 cells after 48 hrs by sulforhodamine B assay; conditions: MOLT-4, 48 h
# TK-10 = test: Growth inhibition of human TK10 cells after 48 hrs by sulforhodamine B assay; conditions: TK-10, 48 h
# U-251 = test: Growth inhibition of human U251 cells after 48 hrs by sulforhodamine B assay; conditions: U-251, 48 h
# RXF 393 = test: Growth inhibition of human RXF393 cells after 48 hrs by sulforhodamine B assay; conditions: RXF 393, 48 h
# LOX IMVI = test: Growth inhibition of human LOXIMVI cells after 48 hrs by sulforhodamine B assay
# UACC-62 = test: Growth inhibition of human UACC62 cells after 48 hrs by sulforhodamine B assay; conditions: UACC-62, 48 h
# SF-268 = test: Growth inhibition of human SF268 cells after 48 hrs by sulforhodamine B assay; conditions: SF-268, 48 h
# HCT-15 = test: Growth inhibition of human HCT15 cells after 48 hrs by sulforhodamine B assay; conditions: HCT-15, 48 h
# HT-29 = test: Growth inhibition of human HT-29 cells after 48 hrs by sulforhodamine B assay; conditions: HT-29, 48 h
# HCT-116 = test: Growth inhibition of human HCT116 cells after 48 hrs by sulforhodamine B assay; conditions: HCT-116, 48 h
# NCI-H460 = test: Growth inhibition of human NCI-H460 cells after 48 hrs by sulforhodamine B assay; conditions: NCI-H460, 48 h
# NCI-H226 = test: Growth inhibition of human NCI-H226 cells after 48 hrs by sulforhodamine B assay; conditions: NCI-H226, 48 h
# SF-539 = test: Growth inhibition of human SF539 cells after 48 hrs by sulforhodamine B assay; conditions: SF-539, 48 h
# T47D = test: Growth inhibition of human T47D cells after 48 hrs by sulforhodamine B assay
smiles,measurement,setting,value
C=C1C(=O)O[C@H]2[C@H]1CC/C(COC(=O)CCC(=O)NCc1ccccn1)=C\CC[C@@]1(C)O[C@@H]21,CC50,[1],14 µM
C=C1C(=O)O[C@H]2[C@H]1CC/C(COC(=O)CCC(=O)NCCCCCCCCCCNC(=O)CCC(=O)OC/C1=C/CC[C@@]3(C)O[C@H]3[C@H]3OC(=O)C(=C)[C@@H]3CC1)=C\CC[C@@]1(C)O[C@@H]21,CC50,[1],12 µM
C=C1C(=O)O[C@@H]2C3O[C@]3(C)CC/C=C(\C)CC[C@@H]12 (some centres undefined),CC50,[1],7.5 µM
C=C1C(=O)O[C@H]2[C@H]1CC/C(COC(=O)CCC(=O)NCc1ccc(Cl)nc1)=C\CC[C@@]1(C)O[C@@H]21,GI50,MCF7,3.2 µM
same,GI50,NCI-H522,1.6 µM
same,GI50,SK-OV-3,28 µM
same,GI50,[2],6.5 µM
same,GI50,CCRF-CEM,2.2 µM
same,GI50,COLO 205,3.3 µM
same,CC50,[1],14 µM
C=C1C(=O)O[C@H]2[C@H]1CC/C(COC(=O)CCC(=O)NCCCCCNC(=O)CCC(=O)OC/C1=C/CC[C@@]3(C)O[C@H]3[C@H]3OC(=O)C(=C)[C@@H]3CC1)=C\CC[C@@]1(C)O[C@@H]21,CC50,[1],19 µM
C=C1C(=O)O[C@H]2[C@H]1CC/C(COC(=O)CCC(=O)NCCCNC(=O)CCC(=O)OC/C1=C/CC[C@@]3(C)O[C@H]3[C@H]3OC(=O)C(=C)[C@@H]3CC1)=C\CC[C@@]1(C)O[C@@H]21,CC50,[1],10 µM
C=C1C(=O)O[C@H]2[C@H]1CC/C(COC(=O)CCC(=O)NCCCCCCCCCNC(=O)CCC(=O)OC/C1=C/CC[C@@]3(C)O[C@H]3[C@H]3OC(=O)C(=C)[C@@H]3CC1)=C\CC[C@@]1(C)O[C@@H]21,GI50,DU-145,1.75 µM
same,GI50,OVCAR-5,1.7 µM
same,GI50,SNB-75,1.47 µM
same,GI50,NCI-H322M,16.3 µM
same,GI50,K562,0.45 µM
same,GI50,M14,1.65 µM
same,GI50,MCF7,0.42 µM
same,GI50,RPMI-8226,0.5 µM
same,GI50,786-0,1.49 µM
same,GI50,A549,13.8 µM
same,GI50,MDA-MB-468,0.98 µM
same,GI50,NCI-H522,0.42 µM
same,GI50,HOP-92,1.4 µM
same,GI50,SK-MEL-2,2.12 µM
same,GI50,CAKI-1,10.5 µM
same,GI50,NCI/ADR-RES,26.7 µM
same,GI50,OVCAR-8,3.24 µM
same,GI50,NCI-H23,2.23 µM
same,GI50,SR,0.33 µM
same,GI50,MDA-MB-231,1.58 µM
same,GI50,SF-295,7.68 µM
same,GI50,SNB-19,3.38 µM
same,GI50,A498,2.72 µM
same,GI50,BT-549,0.66 µM
same,GI50,KM12,4.6 µM
same,GI50,SK-OV-3,5.8 µM
same,GI50,[2],0.44 µM
same,GI50,HCC 2998,2.25 µM
same,GI50,SK-MEL-28,1.47 µM
same,GI50,SK-MEL-5,1.88 µM
same,GI50,ACHN,2.1 µM
same,GI50,OVCAR-3,1.29 µM
same,GI50,PC-3,2.53 µM
same,GI50,SN12C,2.69 µM
same,GI50,SW-620,0.54 µM
same,GI50,CCRF-CEM,0.28 µM
same,GI50,Hs-578T,2.99 µM
same,GI50,HL-60(TB),0.44 µM
same,GI50,COLO 205,1.22 µM
same,GI50,Malme-3M,1.94 µM
same,GI50,UACC-257,2.06 µM
same,GI50,MDA-MB-435,1.63 µM
same,GI50,UO-31,3.9 µM
same,GI50,OVCAR-4,1.48 µM
same,GI50,MOLT-4,0.64 µM
same,GI50,TK-10,1.78 µM
same,GI50,U-251,3.01 µM
same,GI50,RXF 393,1.01 µM
same,GI50,LOX IMVI,0.37 µM
same,GI50,UACC-62,1.69 µM
same,GI50,SF-268,2.92 µM
same,GI50,HCT-15,2.63 µM
same,GI50,HT-29,1.33 µM
same,GI50,HCT-116,0.86 µM
same,GI50,NCI-H460,2.18 µM
same,GI50,NCI-H226,1.9 µM
same,GI50,SF-539,1.85 µM
same,CC50,[1],6.5 µM
same,GI50,T47D,1.49 µM
C=C1C(=O)O[C@H]2[C@H]1CC/C(COC(=O)CCC(=O)NCCCCCCNC(=O)CCC(=O)OC/C1=C/CC[C@@]3(C)O[C@H]3[C@H]3OC(=O)C(=C)[C@@H]3CC1)=C\CC[C@@]1(C)O[C@@H]21,CC50,[1],21 µM
C=C1C(=O)O[C@H]2[C@H]1CC/C(COC(=O)CCC(=O)Nc1nc(N)n[nH]1)=C\CC[C@@]1(C)O[C@@H]21,CC50,[1],60 µM
C=C1C(=O)O[C@H]2[C@H]1CC/C(COC(=O)CCC(=O)N1CCC(F)(F)CC1)=C\CC[C@@]1(C)O[C@@H]21,CC50,[1],5.2 µM
